Data set [1] is described as follows: Pharmacokinetics after IV administration to Sprague-Dawley rats. To be noted: rat, in vivo; for half-life: read-out: mean elimination half-life (T1/2) (converted); for clearance: read-out: mean Clearance (CL) (converted).
A further data set deals with T1, EGFR (Homo sapiens, UniProt P00533).
T1 construct: Recombinant catalytic domain, amino acids 668-1210, GST tagged, purified from insect cells; GST; host or cells: insect cells
Kind of data set: Radiometric kinase assay, EGFR. Conditions: read-out: potency (IC50) over EGFR assay. The format is biochemical. As to the method: (§1) Base Reaction buffer: 20 mM Hepes (pH 7.5), 10 mM MgCl2, 1 mM EGTA, 0.02% Brij35, 0.02 mg/ml BSA, 0.1 mM Na3VO4, 2 mM DTT, 1% DMSO. *Required cofactors are added individually to each kinase reaction
(§2) Prepare indicated substrate in freshly prepared Base Reaction Buffer • Deliver any required cofactors to the substrate solution above • Deliver indicated kinase into the substrate solution and gently mix • Deliver compounds in DMSO into the kinase reaction mixture • Deliver ^33P-ATP (specific activity 0.01 μCi/μl final) into the reaction mixture to initiate the reaction.
Activated in vitro via autophosphorylation. Final concentration in assay=4 nM. Substrate: pEY. Peptide sequence: Poly Glu-Tyr, 4:1 ratio. Final concentration in assay=0.2 mg·mL. 2 mM MnCl2 is added as a cofactor to the reaction mixture
(§3) Compounds in accordance with the practice of the present invention were tested in kinase assays employing high throughput radiometric techniques and nanoliter volume technology (Reaction Biology Corporation, Malvern Pa.).

Another data set concerns the target T2, ErbB2/HER2 (Homo sapiens, UniProt P04626).
T2 construct: Recombinant catalytic domain, amino acids 679-1255, GST tagged, purified from insect cells; GST; host or cells: insect cells
Kind of data set: Radiometric kinase assay, ErbB2/HER2. In kind it is biochemical. To be noted: read-out: potency (IC50) over Her-2 assay. As to the method: as §1, §2
ErbB2/HER2—Genbank Accession # X03363. […] Final concentration in assay=50 nM. Substrate: pEY. Peptide sequence: Poly Glu-Tyr, 4:1 ratio. Final concentration in assay=0.2 mg·mL. 2 mM MnCl2 is added as a cofactor to the reaction mixture
as §3

The test system of the next data set is A431. Kind of data set: Human tumor cell-line growth assay, A431. In kind it is cell-based. To be noted: A-431, A431 (overexpressing EGFR), 10-dose, 3-fold dilution starting at 10 μM, read-out: IC50 growth inhibition A431. On the procedure:
(§4) Invention compounds were tested in human tumor cell-line growth assays.

Another data set deals with NCI-H1975. Kind of data set: Human tumor cell-line growth assay, NCI-H1975. In kind it is cell-based. Conditions: NCI-H1975 (EGFR mutant L858R/T790M), 10-dose, 3-fold dilution starting at 10 μM, read-out: IC50 growth inhibition NCI-H1975. As to the method:
as §4

The subject of the next data set is NCI-H1650. Kind of data set: Human tumor cell-line growth assay, NCI-H1650. The format is cell-based. Conditions: NCI-H1650 (EGFR mutant E746-A750), 10-dose, 3-fold dilution starting at 10 μM, read-out: IC50 growth inhibition NCI-H1650. As to the method:
as §4

A further data set has as its system BT-474. Kind of data set: Human tumor cell-line growth assay, BT-474. In kind it is cell-based. Conditions: BT-474 (overexpressing ErbB2), 10-dose, 3-fold dilution starting at 10 μM, read-out: IC50 growth inhibition BT-474. As to the method: as §4
In another data set the test system is SKBR3. Kind of data set: Human tumor cell-line growth assay, SKBR3. The format is cell-based. Conditions: SK-BR-3, SKBR3 (overexpressing EGFR and ErbB2), 10-dose, 3-fold dilution starting at 10 μM, read-out: IC50 growth inhibition SKBR3. As to the method:
as §4

For another data set, the system named is A549. In words: Human tumor cell-line growth assay, A549. The format is cell-based. To be noted: 10-dose, 3-fold dilution starting at 10 μM, read-out: IC50 growth inhibition A549. On the procedure:
as §4

This is an account of results in US8748453B2, “Substituted heterocyclic compounds as kinases inhibitors and methods of use thereof” (Medolution Limited, priority 2009, dated 2014).

The term IC50 denotes the concentration needed to halve the response being measured. As a reminder, the clearance is the rate of elimination divided by the concentration.

T2 sequence (P04626 679-1255): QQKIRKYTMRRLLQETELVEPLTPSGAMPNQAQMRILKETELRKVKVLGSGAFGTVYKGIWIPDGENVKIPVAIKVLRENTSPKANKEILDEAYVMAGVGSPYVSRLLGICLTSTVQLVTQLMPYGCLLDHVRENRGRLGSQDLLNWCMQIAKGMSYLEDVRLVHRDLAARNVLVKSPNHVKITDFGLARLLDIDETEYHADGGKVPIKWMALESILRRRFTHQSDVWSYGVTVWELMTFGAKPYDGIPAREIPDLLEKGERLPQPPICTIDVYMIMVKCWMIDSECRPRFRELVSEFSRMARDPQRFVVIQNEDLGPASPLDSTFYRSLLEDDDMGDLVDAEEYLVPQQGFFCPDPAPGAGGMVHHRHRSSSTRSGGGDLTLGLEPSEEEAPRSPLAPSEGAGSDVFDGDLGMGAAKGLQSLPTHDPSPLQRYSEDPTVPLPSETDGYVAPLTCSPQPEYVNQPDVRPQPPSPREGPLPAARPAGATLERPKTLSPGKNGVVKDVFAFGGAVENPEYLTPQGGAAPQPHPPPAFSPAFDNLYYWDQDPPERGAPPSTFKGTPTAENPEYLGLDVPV
T1 sequence (P00533 668-1210): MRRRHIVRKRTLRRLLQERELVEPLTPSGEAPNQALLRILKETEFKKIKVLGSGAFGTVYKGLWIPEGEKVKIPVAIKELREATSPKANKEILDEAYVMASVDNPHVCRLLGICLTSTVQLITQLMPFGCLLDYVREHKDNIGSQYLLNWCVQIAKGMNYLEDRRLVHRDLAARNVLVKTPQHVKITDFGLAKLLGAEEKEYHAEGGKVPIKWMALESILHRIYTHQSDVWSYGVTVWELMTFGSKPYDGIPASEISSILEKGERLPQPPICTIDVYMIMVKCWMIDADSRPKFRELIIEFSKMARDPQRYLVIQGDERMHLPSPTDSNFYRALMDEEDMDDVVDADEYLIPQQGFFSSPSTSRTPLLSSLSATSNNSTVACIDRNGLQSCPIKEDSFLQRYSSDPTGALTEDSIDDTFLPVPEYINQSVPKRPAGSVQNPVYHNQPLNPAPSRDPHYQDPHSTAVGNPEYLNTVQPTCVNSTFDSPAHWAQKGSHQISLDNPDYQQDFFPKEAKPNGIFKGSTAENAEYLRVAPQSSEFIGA

On to `[2H]C([2H])([2H])N(C/C=C/C(=O)Nc1cc2c(Nc3ccc(OCc4ccccn4)c(Cl)c3)c(C#N)cnc2cc1OCC)C([2H])([2H])[2H]` [Compound A, (E)-N-{4-[3-chloro-4-(2-pyridinylmethoxy)aniline]-3-cyano-7-ethoxy-6-quinolinyl}-4-(dimethyl-d6-amino)-2-butenamide], for which, in data set [1], the half-life was 6.59 h.
Take `[2H]C([2H])([2H])N(C/C=C/C(=O)Nc1cc2c(Nc3cccc(C#C)c3)c(C#N)cnc2cc1OCC)C([2H])([2H])[2H]` [Compound B, (E)-N-(3-cyano-7-ethoxy-4-(3-ethynylphenylamino)quinolin-6-yl)-4-(dimethyl-d6-amino)but-2-enamide]: the IC50 at EGFR was less than 1000 nM. Moreover, the IC50 at ErbB2/HER2 is less than 1000 nM. In addition, in data set [1], the clearance is 47.1 mL/min/kg and the half-life was 8.76 h.
Consider `C#Cc1cccc(Nc2c(C#N)cnc3cc(OCC)c(NC(=O)/C=C/CN(C)C)cc23)c1` [Compound C, (E)-N-(3-cyano-7-ethoxy-4-(3-ethynylphenylamino)quinolin-6-yl)-4-(dimethylamino)but-2-enamide], for which the IC50 on EGFR was less than 1000 nM; at ErbB2/HER2 it was less than 1000 nM; in the data set on A431, less than 1000 nM; in the data set with NCI-H1975 it was less than 10000 nM; in the data set on NCI-H1650, less than 10000 nM; in the data set with BT-474 it was less than 1000 nM. Besides, the IC50 with SKBR3 and in the data set on A549 was less than 1000 nM throughout. The clearance in data set [1] is 59.7 mL/min/kg. In addition, the half-life in [1] was 5.37 h.
On to `[2H]C([2H])([2H])N(C/C=C/C(=O)Nc1cc2c(Nc3ccc(OCc4ccccn4)c(Cl)c3)c(C#N)cnc2cc1OCCOC)C([2H])([2H])[2H]` [Example 7], for which the IC50 on EGFR and on ErbB2/HER2 was less than 1000 nM in each case.
Take `CCOc1cc2ncc(C#N)c(Nc3ccc(OCc4ccccn4)c(Cl)c3)c2cc1NC(=O)/C=C/CN(C)C` [HKI272, reference compound]: the half-life in [1] was 5.28 h.
